Values of other authors as cited in patent US11419872B2, “Phosphoinositide 3-kinase and Src inhibitors for treatment of pancreatic cancer” (Innoplexus AG, priority 2020, dated 2022).

Key:
[1] = for adverse events reported: literature reports
[2] = tested on: primary tumours and metastasis; conditions: pre-clinical animal models
[3] = tested on: colon carcinoma cell line CT26
[4] = in vivo
[5] = tested on: pancreatic cancer cell line PANC-1; conditions: PANC-1 (Suzuki et al. 2016)
[6] = tested on: breast cancer cell line MDA-MB-231
[7] = tested on: human embryonic kidney cell line HEK293
[8] = tested on: gastric cancer cell line MKN-1
CYP3A4 = CYP3A4 (Homo sapiens, UniProt P08684)
Chain of CYP3A4 (P08684 whole entry): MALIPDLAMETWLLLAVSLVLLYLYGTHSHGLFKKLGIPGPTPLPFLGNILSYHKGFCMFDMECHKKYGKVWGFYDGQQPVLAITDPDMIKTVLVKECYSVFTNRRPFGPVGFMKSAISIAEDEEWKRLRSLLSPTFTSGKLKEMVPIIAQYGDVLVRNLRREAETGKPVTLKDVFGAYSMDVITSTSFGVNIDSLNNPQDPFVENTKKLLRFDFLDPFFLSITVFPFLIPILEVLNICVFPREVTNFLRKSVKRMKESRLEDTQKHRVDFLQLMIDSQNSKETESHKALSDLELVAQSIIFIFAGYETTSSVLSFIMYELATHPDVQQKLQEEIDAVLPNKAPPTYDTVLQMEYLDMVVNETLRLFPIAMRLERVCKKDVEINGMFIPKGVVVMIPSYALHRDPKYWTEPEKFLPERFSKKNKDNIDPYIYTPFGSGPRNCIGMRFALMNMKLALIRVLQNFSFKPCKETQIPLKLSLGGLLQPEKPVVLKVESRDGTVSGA

In the case of `CC[C@H](Nc1ncnc2[nH]cnc12)c1nc2cccc(F)c2c(=O)n1-c1ccccc1` [Idealisib, 5-fluoro-3-phenyl-2-[(1S)-1-(7H-purin-6-ylamino)propyl] quinazolin-4-one], the adverse events reported [1] is listed as “pneumonitis, hematological disorder, diarrhea and colitis”.

For `O=C(Cc1ccc(-c2ccc(OCCN3CCOCC3)cc2)cn1)NCc1ccccc1` [KX2-391, N-benzyl-2-[5-[4-(2-morpholin-4-ylethoxy)phenyl]pyridin-2-yl] acetamide], the “growth of primary tumours and metastasis” value [2] is listed as “inhibits the growth of both primary tumours and metastasis”.

For `O=C1CCc2ccc(OCCCCN3CCN(c4cccc(Cl)c4Cl)CC3)cc2N1` [aripiprazole, 7-[4-[4-(2,3-dichlorophenyl)piperazin-1-yl]butoxy]-3,4-dihydro-1Hquinolin-2-one], the cell viability [3] is listed as “reduced the viability”, the “Log P” value is listed as 4.55 and the elimination half-life [4] is listed as “approximately 75 hours”. For the same compound, the “cell death and number of viable cells” value [5] was “induced cell death and accordingly decreased the number of viable cells”, the cell viability [6] was “reduced the viability” and the cell viability (glioma cell line LN428) was “reduced the viability”. For the same compound, the cell viability [7] was “reduced the viability”, the cell viability (glioma cell line U251) was “reduced the viability” and the cell viability [8] was “reduced the viability”.

In the case of `COc1c(OCCCN2CCOCC2)ccc2c1N=C(NC(=O)c1cnc(N)nc1)N1CCN=C21` [copanlisib, amino-N-[7-methoxy-8-(3-morpholin-4-ylpropoxy)-2,3-dihydro-1 H-imidazo [1,2-c]quinazolin-5-ylidene] pyrimidine-5-carboxamide], the adverse events reported [1] is given as “cardiac disorders, glucose metabolism disorders or neurological disorders”.

For `Cc1c(O)c(=O)ccn1C` [deferiprone], the adverse events reported [1] is given as “joint pain, stiffness or swelling”.

In the case of `C[C@H](Nc1ncnc2[nH]cnc12)c1cc2cccc(Cl)c2c(=O)n1-c1ccccc1` [duvelisib, 8-Chloro-2-phenyl-3-[(1S)-1-(3H-purin-6-ylamino)ethyl]-1(2H)-isoquinolinone], the adverse events reported [1] is given as “diarrhea or colitis, cutaneous reactions, infections and pneumonitis”, the safety profile ([1]; patients with advanced hematologic malignancies) is given as “manageable safety profile” and the primary metabolising enzyme (CYP3A4) is given as “primarily metabolized by CYP3A4”.

For `COc1cc(Nc2ncc(F)c(Nc3ccc4c(n3)N(COP(=O)(O)O)C(=O)C(C)(C)O4)n2)cc(OC)c1OC` [fostamatinib], the adverse events reported [1] is given as “white blood cell disorder, hematological and hepatobiliary disorders”.
